Results reported in PubChem BioAssay (NCI).
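48-hour exposure; five concentrations; linearly interpolated endpoints. GI50: concentration for 50% inhibition of growth. At the TGI there is no net growth.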

Tests used:
Assay in all cases: NCI tumour cell line growth inhibition, 48 h
CCRF-CEM leukemia = system: CCRF-CEM leukemia
HCC-2998 colon = system: HCC-2998 colon
HCT-15 colon = system: HCT-15 colon
HL-60(TB) leukemia = system: HL-60(TB) leukemia
MDA-MB-435 = system: MDA-MB-435
OVCAR-8 ovarian = system: OVCAR-8 ovarian
RXF 393 renal = system: RXF 393 renal
SK-OV-3 ovarian = system: SK-OV-3 ovarian
TK-10 renal = system: TK-10 renal
U251 CNS = system: U251 CNS

Row | Structure (SMILES) | GI50 (CCRF-CEM leukemia) [µM] | TGI (CCRF-CEM leukemia) [µM] | GI50 (HCC-2998 colon) [µM] | TGI (HCC-2998 colon) [µM] | GI50 (HCT-15 colon) [µM] | TGI (HCT-15 colon) [µM] | GI50 (HL-60(TB) leukemia) [µM] | TGI (HL-60(TB) leukemia) [µM] | GI50 (MDA-MB-435) [µM] | TGI (MDA-MB-435) [µM] | GI50 (OVCAR-8 ovarian) [µM] | TGI (OVCAR-8 ovarian) [µM] | GI50 (RXF 393 renal) [µM] | TGI (RXF 393 renal) [µM] | GI50 (SK-OV-3 ovarian) [µM] | TGI (SK-OV-3 ovarian) [µM] | GI50 (TK-10 renal) [µM] | TGI (TK-10 renal) [µM] | GI50 (U251 CNS) [µM] | TGI (U251 CNS) [µM]
1 | COc1cc(OC)c(/C=C/C(=O)c2c(OC)cc(OC)cc2OC)c(OC)c1 | 0.876 | > 100 | 1.24 | 10 | 0.458 | 33.4 | 0.637 | 9.44 | 0.235 | 0.694 | 3.43 | > 100 | 1.3 | 4.99 | 2.66 | 25.9 | 3.31 | > 100 | 1.11 | 9.43
2 | CC(NNC(=S)N1CCN(c2ccccn2)CC1)c1nccc2ccccc12 (stereo not given) |  | 1.02 |  | 14.7 |  | 17.3 |  | 1.18 |  | 17 |  | 15.7 |  | 8.53 |  | 15.1 |  | 16.3 |  | 14.3
3 | Nc1nc2cc(Cl)ccc2n1N |  | > 100 |  | > 100 |  | > 100 |  | > 100 |  | > 100 |  | > 100 |  | > 100 |  | > 100 |  | > 100 |  | > 100
4 | COc1c(C(N)=O)cc(-c2ccc(Cl)cc2)cc1-c1ccc(S(N)(=O)=O)cc1 | 8.53 | > 25 | 11.4 | > 25 | 9.66 | > 25 | 7.19 | > 17.9 | 11.4 | > 25 | 9.33 | > 25 | 7.88 | > 25 | > 22 | > 25 | 6.65 | 18.8 | 9.52 | > 25
5 | CC(C)[C@@H](C(=O)O[C@@H]1/C=C/C(=O)O[C@@H](C)CCC/C=C/[C@@H]2C[C@H](O)C[C@H]21)N(C)C | 7.84 | 35.1 | 20 | 55.1 | 16 | 32.3 | 13.8 | 36 | 7.43 | 41.4 | 18.1 | > 83.2 | 7.33 | 44.1 | 23.8 | > 96 | 12.4 | 51.4 | 30.2 | > 100
6 | COC(=O)Nc1nc2ccc(C(=O)c3cccc(I)c3)cc2[nH]1 | 0.0402 | 5.26 | 0.208 | 30.6 | 0.0459 | 13.2 | 0.0315 | 0.163 | 0.0211 | 0.051 | 0.132 | 30.4 | 0.0494 | 1.05 | 0.257 | 28.6 | 6.37 | 32.7 | 0.0559 | 12.3
7 | CCN1CCN(C(=O)[C@]23CC[C@@H](C)[C@H](C)[C@@H]2C2=CC[C@@H]4[C@@]5(C)CCC(=O)C(C)(C)[C@@H]5CC[C@@]4(C)[C@]2(C)CC3)CC1 | 0.976 | 2.74 | 0.922 | 1.82 | 0.977 | 2.39 | 0.98 | 2.18 | 1.05 | 2.3 | 1.1 | 2.89 | 0.822 | 1.74 | 1.51 | 4.83 | 1.27 | 4.14 | 0.854 | 1.85
8 | COc1ccc(C(=O)/C=C/c2ccc(OCc3cccc(C(F)(F)F)c3)c(OC)c2)cc1OC | 38.8 | > 1000 | 131 | > 1000 | 42 | > 1000 | 24.8 | 70.9 | 45.8 | > 1000 | 48.8 | > 1000 | 68.3 | 562 | 221 | > 1000 | 397 | > 1000 | 61.4 | > 1000
9 | Cc1ccc2ccccc2c1CSc1nc(N)nc2c1ncn2CC(C)C |  | > 95.5 |  | > 71.6 |  | > 100 |  | > 100 |  | > 84.4 |  | > 100 |  | > 90.7 |  | > 100 |  | > 100 |  | > 100
10 | CCCCCCCCN(CCCCCCCC)CC(O)c1cc(-c2ccccc2)nc2ccc(OC)cc12 (stereo not given) | 26.1 | > 100 | > 100 | > 100 | 23.2 | > 100 | 18 | 52.2 | 32.1 | > 100 | 32.2 | > 100 | 43.7 | > 100 | > 100 | > 100 | > 100 | > 100 | 27.8 | 96.2
11 | COc1nn(C)cc1Nc1nccc(-c2c[nH]c3c(NC(=O)[C@@H](C)N4CCN(C)CC4)cccc23)n1 | 40.4 | > 100 | > 100 | > 100 | 37.6 | > 100 | 28.9 | > 100 | 24.3 | 82.3 | > 100 | > 100 | 16.6 | 42.2 | 44.2 | > 100 | 44.1 | > 100 | 43.7 | > 100
12 | O=C(Nc1cccc([N+](=O)[O-])c1)c1cccc(C(=O)Nc2cccc([N+](=O)[O-])c2)c1 | > 100 | > 100 | > 100 | > 100 | > 100 | > 100 | > 100 | > 100 | > 100 | > 100 | 14 | > 100 | 14.7 | 38.8 | 13 | > 82.8 | 9.71 | > 61.3 | 7.15 | > 68.2
13 | CCC(=O)OCOc1ccc(/C=C2\CCC(CN(C)C)C2=O)cc1 (stereo not given) |  | > 23.1 |  | 18.5 |  | 9.97 |  | 5.51 |  | 10.6 |  | 11.2 |  | 9.55 |  | 29.1 |  | 22.2 |  | 26.2
14 | Cc1cc(N(CCC#N)S(=O)(=O)c2ccccc2)ccc1C=Nc1ccc(C(=O)O)cc1 |  | > 26.5 |  | 27.5 |  | 13.7 |  | > 21.3 |  | > 100 |  | 15.5 |  | 6.72 |  | 48.9 |  | 17.9 |  | 38.2
15 | COc1cc2c(cc1OC)C(Cl)C(c1ccc(Br)cc1)=C2Cl (stereo not given) |  | > 100 |  | 27.4 |  | 23.6 |  | > 67.3 |  | 17.4 |  | 26.1 |  | 24.6 |  | 45.9 |  | 23.6 |  | 24.8
